Calls of active or inactive are those of the source.
Columns and labels:
[1] = target: T1, Coagulation factor XII (Homo sapiens, UniProt P00748); type: functional;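 note: activated factor XIIa alpha cleaving a fluorogenic AMC peptide substrate; inhibitor potency from loss of enzyme activity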
T1 sequence (P00748 whole entry): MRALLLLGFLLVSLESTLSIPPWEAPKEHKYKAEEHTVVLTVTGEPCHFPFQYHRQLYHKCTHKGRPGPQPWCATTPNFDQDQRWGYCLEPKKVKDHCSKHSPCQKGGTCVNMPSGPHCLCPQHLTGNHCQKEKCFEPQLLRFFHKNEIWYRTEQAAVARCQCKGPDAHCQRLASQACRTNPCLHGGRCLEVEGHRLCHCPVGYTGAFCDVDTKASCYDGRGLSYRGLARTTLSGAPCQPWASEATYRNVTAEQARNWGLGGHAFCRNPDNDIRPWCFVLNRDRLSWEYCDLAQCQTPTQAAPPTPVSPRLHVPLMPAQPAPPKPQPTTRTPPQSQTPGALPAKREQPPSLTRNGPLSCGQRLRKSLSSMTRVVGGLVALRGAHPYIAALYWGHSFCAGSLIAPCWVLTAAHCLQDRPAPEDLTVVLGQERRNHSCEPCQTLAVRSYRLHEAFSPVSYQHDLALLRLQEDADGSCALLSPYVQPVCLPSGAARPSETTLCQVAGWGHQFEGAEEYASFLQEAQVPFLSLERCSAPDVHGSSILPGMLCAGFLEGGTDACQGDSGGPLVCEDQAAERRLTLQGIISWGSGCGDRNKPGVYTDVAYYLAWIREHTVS

[2] = target: Prothrombin (Homo sapiens, UniProt P00734); assay: Thrombin 1536 HTS Dose Response Confirmation. [Related pubchem assays: 1046 (Thrombin 1536 HTS; hits were confirmed in this assay)]; type: functional
[3] = test system: Vero; assay: cells; type: functional; details: Chlorocebus sabaeus
[4] = target: ATP-dependent molecular chaperone HSP82 (Candida albicans (strain WO-1) (Yeast), UniProt C4YTQ8); assay: loss of DOC-induced GRE-beta-galactosidase reporter signal, dose response, Hsp90 inhibitor project, S. cerevisiae, luminescence (AID 2400); type: functional, cell-based;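 note: beta-galactosidase luminescence from glucocorticoid response element reporter as proxy for Hsp90 function; inhibitor potency where signal loss means Hsp90 inhibition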
Sequence of ATP-dependent molecular chaperone HSP82 (C4YTQ8 whole entry): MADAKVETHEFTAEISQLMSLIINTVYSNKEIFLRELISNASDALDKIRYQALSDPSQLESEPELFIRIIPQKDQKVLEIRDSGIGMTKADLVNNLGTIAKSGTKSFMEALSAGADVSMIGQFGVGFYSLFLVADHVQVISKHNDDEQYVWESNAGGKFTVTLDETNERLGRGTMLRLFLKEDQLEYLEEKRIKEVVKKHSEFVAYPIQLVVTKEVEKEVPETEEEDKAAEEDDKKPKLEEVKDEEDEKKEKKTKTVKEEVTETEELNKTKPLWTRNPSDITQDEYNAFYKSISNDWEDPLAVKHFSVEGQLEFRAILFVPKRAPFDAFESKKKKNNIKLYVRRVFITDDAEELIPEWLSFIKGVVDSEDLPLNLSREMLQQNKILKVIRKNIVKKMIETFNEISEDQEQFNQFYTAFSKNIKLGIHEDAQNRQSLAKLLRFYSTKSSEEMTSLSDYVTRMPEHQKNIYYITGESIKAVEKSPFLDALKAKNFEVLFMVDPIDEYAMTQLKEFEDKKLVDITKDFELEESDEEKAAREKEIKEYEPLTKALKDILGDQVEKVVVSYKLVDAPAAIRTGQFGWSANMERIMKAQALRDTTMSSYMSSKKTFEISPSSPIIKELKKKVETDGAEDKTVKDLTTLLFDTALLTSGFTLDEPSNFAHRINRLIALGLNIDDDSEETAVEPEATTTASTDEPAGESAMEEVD

[5] = test system: Streptococcus; assay: Group A Streptococcus viability loss, dose response, counter-screen for streptokinase expression inhibitor project, luminescence, BacTiterGlo (AID 1915); type: functional, organism-based;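 note: potency for reduction of bacterial viability or growth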
[6] = test system: Streptococcus sp. 'group A'; assay: growth inhibition of control SK(-) GAS strain, dose response, counter-screen for streptokinase expression inhibitor project, luminescence, kanamycin, BacTiterGlo, confirmation (AID 1900); type: functional, organism-based
[7] = target: T2, Serine/threonine-protein phosphatase (Candida dubliniensis (strain CD36 / CBS 7987 / NCPF 3949 / NRRLY-17841) (Yeast), UniProt B9W6M3); assay: calcineurin pathway inhibitors in yeast reporter, dose response, S. cerevisiae, CDRE-lacZ, luminescence, secondary (AID 2388); type: functional, cell-based;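 note: yeast reporter cells carrying a calcineurin-responsive lacZ construct stimulated with calcium chloride; luminescent beta-galactosidase reporter signal in whole cells rather than isolated phosphatase activity; potency for inhibition where a drop in reporter signal means calcineurin blockade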
T2 sequence (B9W6M3 whole entry): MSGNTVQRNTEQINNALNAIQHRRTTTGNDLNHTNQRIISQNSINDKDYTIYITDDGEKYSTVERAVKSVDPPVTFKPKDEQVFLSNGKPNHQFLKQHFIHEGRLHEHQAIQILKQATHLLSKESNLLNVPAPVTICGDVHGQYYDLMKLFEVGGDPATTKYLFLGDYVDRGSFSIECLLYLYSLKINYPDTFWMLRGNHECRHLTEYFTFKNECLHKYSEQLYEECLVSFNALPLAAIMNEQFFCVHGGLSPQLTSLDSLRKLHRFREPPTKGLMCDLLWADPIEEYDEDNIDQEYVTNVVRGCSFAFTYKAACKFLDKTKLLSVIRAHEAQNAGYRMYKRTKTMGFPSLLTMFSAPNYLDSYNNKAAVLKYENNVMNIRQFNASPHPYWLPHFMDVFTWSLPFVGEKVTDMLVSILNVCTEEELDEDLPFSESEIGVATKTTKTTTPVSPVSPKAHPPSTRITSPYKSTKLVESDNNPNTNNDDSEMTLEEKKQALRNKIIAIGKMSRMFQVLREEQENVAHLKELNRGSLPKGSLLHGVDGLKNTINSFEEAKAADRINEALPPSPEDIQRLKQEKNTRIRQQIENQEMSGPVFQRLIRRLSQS

[8] = C. albicans growth with fluconazole, confirmation, fluorescence, retest (AID 2467); type: functional, cell-based
[9] = target: T3, Streptokinase A (Streptococcus pyogenes serotype M1, UniProt P10520); assay: S. pyogenes streptokinase expression inhibitors, potency, dose response, plasminogen activation absorbance, OD405 (AID 1914); type: functional, Streptococcus pyogenes M1 GAS;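 note: secreted streptokinase activity via plasminogen activation per viability signal from cell pellet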
T3 sequence (P10520 whole entry): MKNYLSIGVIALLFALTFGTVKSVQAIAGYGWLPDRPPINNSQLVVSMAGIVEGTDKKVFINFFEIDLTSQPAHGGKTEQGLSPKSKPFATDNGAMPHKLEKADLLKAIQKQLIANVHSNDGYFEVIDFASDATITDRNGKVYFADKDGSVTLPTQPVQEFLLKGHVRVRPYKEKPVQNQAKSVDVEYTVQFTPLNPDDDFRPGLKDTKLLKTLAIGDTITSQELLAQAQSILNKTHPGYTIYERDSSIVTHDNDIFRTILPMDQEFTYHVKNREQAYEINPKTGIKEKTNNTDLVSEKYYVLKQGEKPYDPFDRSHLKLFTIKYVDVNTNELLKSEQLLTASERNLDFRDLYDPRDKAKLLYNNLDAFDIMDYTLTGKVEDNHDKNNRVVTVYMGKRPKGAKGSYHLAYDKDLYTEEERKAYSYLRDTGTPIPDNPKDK

[10] = NIH-3T3 fibroblast cytotoxicity, dose response, cytotoxicity control, cell-based, fluorescence, Alamar Blue, secondary assay (AID 2327); type: functional;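 note: NIH-3T3 mouse fibroblasts cultured with fluconazole at 8 µg/mL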
[11] = target: Cytochrome P450 3A4 (Homo sapiens, UniProt P08684);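 note: CYP3A4 tested as one member of a cytochrome P450 panel screen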
Sequence of Cytochrome P450 3A4 (P08684 whole entry): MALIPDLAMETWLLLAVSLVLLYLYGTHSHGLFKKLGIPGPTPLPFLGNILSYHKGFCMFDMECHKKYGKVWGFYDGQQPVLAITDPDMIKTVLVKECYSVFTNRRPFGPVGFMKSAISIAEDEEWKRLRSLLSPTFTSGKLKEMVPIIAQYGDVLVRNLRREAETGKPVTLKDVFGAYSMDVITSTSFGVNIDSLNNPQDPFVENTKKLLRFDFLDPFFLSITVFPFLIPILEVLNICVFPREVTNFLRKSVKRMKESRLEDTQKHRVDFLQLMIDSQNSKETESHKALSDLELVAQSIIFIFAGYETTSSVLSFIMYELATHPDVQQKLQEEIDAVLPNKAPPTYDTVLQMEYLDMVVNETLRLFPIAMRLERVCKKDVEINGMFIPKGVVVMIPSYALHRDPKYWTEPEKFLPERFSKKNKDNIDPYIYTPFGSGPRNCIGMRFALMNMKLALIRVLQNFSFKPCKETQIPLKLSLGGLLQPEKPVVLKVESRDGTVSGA

[12] = target: Cytochrome P450 2D6 (Homo sapiens, UniProt P10635);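 note: CYP2D6 member of a cytochrome P450 panel assay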
Sequence of Cytochrome P450 2D6 (P10635 whole entry): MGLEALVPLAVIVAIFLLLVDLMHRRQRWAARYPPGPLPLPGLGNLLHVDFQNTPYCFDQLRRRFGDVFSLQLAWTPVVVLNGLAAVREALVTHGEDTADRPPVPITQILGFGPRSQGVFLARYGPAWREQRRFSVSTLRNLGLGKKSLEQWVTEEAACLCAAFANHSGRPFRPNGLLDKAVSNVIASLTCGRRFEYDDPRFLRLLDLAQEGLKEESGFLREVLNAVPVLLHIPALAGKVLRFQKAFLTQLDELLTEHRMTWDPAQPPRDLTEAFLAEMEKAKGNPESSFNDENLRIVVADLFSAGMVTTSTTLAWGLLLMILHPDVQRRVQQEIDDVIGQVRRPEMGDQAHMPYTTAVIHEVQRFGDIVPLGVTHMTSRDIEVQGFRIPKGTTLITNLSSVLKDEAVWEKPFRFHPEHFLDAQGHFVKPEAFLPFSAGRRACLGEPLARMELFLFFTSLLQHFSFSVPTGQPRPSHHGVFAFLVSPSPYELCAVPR

[13] = target: Nonstructural protein 1 (Influenza A virus, UniProt Q194T2); type: functional, Influenza A virus (A/California/07/2009(H1N1))
Sequence of Nonstructural protein 1 (Q194T2 whole entry): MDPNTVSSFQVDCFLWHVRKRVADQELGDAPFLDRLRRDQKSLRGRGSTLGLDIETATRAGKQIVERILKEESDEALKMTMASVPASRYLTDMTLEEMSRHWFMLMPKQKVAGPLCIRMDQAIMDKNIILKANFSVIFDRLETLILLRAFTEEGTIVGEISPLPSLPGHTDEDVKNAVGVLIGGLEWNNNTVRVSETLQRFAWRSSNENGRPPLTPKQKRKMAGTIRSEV

[14] = target: T4, Mannose-6-phosphate isomerase (Homo sapiens, UniProt P34949); assay: human PMI inhibitors, high substrate, primary screen, biochemical, fluorescence intensity, high mannose 6-phosphate (AID 1220)
T4 sequence (P34949 whole entry): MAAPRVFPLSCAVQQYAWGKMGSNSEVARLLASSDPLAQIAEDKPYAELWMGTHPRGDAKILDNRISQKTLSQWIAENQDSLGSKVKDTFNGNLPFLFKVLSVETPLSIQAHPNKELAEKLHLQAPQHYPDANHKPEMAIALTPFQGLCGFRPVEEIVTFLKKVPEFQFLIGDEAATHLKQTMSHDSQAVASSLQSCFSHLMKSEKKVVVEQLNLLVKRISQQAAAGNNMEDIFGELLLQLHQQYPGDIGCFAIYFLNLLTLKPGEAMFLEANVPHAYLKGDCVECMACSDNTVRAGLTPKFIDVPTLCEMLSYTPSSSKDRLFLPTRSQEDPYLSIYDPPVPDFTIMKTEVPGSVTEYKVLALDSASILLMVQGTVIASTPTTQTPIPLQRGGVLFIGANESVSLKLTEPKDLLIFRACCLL

[15] = target: Cytochrome P450 2C19 (Homo sapiens, UniProt P33261); assay: Cytochrome panel assay with activity outcomes. Panel member name: p450-cyp2c19 Compounds with AC50 equal or less than 10 uM are considered active; type: functional; details: read-out: AC50
Sequence of Cytochrome P450 2C19 (P33261 whole entry): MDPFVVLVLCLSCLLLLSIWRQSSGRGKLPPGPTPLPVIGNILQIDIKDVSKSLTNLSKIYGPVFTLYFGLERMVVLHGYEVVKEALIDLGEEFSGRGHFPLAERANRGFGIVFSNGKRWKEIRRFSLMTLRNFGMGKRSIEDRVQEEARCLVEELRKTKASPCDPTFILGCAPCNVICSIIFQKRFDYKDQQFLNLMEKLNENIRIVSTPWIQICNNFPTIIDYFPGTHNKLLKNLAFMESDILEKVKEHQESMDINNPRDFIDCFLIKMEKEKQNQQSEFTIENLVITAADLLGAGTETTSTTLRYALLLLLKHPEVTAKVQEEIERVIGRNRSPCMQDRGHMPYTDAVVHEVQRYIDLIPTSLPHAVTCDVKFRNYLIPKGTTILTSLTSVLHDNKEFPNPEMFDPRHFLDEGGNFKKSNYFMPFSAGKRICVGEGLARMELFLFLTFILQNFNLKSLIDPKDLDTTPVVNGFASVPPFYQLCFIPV

[16] = target: T5, Histone-lysine N-methyltransferase NSD2 (Homo sapiens, UniProt O96028); type: biochemical
T5 sequence (O96028 whole entry): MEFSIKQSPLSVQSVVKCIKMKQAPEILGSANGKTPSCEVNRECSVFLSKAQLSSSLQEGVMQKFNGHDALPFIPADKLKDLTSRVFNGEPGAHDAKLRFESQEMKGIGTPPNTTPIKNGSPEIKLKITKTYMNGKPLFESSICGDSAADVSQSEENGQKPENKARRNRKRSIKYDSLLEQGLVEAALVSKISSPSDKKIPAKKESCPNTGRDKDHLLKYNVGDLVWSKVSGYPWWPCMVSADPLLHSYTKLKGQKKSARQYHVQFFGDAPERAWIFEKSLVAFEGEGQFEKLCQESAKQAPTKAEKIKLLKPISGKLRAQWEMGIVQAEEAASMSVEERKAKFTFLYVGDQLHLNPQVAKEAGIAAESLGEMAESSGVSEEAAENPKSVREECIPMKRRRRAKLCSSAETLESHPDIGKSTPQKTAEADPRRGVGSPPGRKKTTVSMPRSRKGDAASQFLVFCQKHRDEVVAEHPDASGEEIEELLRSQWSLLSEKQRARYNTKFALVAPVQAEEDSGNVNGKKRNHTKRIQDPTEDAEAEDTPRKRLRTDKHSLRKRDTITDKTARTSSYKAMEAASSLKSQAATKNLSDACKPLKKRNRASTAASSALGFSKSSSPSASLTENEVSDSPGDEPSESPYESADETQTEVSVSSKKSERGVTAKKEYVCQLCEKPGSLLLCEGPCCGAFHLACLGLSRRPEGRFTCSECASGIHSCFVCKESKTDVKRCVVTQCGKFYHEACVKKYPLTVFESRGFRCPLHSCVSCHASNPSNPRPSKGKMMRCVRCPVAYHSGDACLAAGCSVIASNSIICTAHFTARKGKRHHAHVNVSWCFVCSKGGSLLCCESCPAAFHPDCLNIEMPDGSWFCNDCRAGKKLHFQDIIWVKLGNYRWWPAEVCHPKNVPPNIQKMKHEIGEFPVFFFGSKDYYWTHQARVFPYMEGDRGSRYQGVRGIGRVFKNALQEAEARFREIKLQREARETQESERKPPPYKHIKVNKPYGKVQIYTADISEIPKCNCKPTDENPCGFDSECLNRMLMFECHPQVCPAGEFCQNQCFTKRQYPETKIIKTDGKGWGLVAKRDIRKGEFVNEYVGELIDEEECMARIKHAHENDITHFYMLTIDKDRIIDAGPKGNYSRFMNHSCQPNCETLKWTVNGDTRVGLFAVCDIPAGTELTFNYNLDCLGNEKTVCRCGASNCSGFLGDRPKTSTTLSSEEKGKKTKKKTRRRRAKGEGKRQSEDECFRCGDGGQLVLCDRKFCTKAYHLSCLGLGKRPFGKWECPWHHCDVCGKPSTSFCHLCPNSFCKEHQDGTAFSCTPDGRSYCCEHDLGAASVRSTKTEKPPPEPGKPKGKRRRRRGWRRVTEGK

[17] = target: Cytochrome P450 2C9 (Homo sapiens, UniProt P11712)
Sequence of Cytochrome P450 2C9 (P11712 whole entry): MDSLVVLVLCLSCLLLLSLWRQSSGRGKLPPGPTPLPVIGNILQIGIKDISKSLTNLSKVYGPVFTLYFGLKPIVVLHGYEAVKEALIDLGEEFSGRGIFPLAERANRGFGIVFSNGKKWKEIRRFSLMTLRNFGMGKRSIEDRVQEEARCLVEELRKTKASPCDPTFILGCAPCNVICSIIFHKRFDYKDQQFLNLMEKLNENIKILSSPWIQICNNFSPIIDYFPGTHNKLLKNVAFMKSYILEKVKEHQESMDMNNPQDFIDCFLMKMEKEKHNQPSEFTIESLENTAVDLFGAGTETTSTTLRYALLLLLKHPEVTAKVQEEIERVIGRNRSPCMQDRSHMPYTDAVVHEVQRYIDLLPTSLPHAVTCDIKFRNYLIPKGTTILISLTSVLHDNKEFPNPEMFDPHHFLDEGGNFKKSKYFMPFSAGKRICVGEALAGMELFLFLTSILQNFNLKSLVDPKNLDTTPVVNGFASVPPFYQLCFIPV

[18] = test system: H9c2; assay: cells; type: functional, cell-based; details: Rattus norvegicus, H9c2, Myocardium;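 note: confirmatory concentration-response retest of ultra-high-throughput screening hits for modulation of myocardial damage; cell death induced by hydrogen peroxide oxidative stress; compound pretreatment for 60 min then peroxide exposure for 2 h; potency is for protecting the cells against peroxide damage rather than for killing them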
[19] = cells; type: functional, cell-based
[20] = cells; type: functional, cell-based; remark: listed apart in the source

O=C1SCCC1NC(=O)C(c1ccccc1)c1ccccc1 (configuration not stated)
IC50 [1]: > 50 µM (inactive)

CCOc1ccc(OCC)c(NC(=O)CCS(=O)(=O)c2ccc(Br)s2)c1
IC50 [2]: 3.1 µM (active)

O=C(CC1CCCC1)NNC(=O)c1ccccc1O
CC50 [3]: > 25 µM (active)

O=C(c1cc2ccccc2cc1O)N1CCN(c2ccccc2O)CC1
EC50 [4]: > 150 µM (inactive)
EC50 [5]: 110 µM (active)
EC50 [6]: 24.3 µM (active)
EC50 [7]: > 180 µM (inactive)
EC50 [8]: 0.274 µM (active)
EC50 [9]: > 150 µM (not active)
EC50 [10]: > 150 µM (inactive)

CS(=O)(=O)c1ccc2nc(NC(=O)c3ccc(NS(=O)(=O)c4cccc([N+](=O)[O-])c4)cc3)sc2c1
EC50 [5]: 12 µM (active)
EC50 [6]: 2.32 µM (active)
IC50 [2]: > 50 µM (not active)
EC50 [9]: > 150 µM (not active)

O=C(O)Cc1ccc(NC(=O)CCN2C(=O)c3ccc([N+](=O)[O-])cc3C2=O)cc1
IC50 [1]: > 50 µM (inactive)

O=C(CCc1ccc(O)cc1)N/N=C/c1coc2ccccc2c1=O
IC50 [2]: 6.25 µM (active)

Cc1ccc2[nH]c(/C(C#N)=C\c3ccc(OC(=O)c4cccs4)cc3)nc2c1
EC50 [4]: 23.3 µM (active)
AC50 [11]: 14.1 µM (inconclusive)
EC50 [7]: > 180 µM (inactive)
EC50 [8]: 5.29 µM (active)
EC50 [10]: 17.2 µM (inconclusive)
AC50 [12]: 3.55 µM (inconclusive)

O=[N+]([O-])c1ccc(O)c(Nc2c([N+](=O)[O-])ccc3nonc23)c1
IC50 [13]: 64.5 µM (active)

Cc1nnc2c(-c3ccccc3)nc3ccccc3n12
IC50 [2]: > 50 µM (not active)

Cc1cc(C)n(-c2nnc(C)n2NS(=O)(=O)c2ccc(F)cc2)n1
IC50 [1]: > 50 µM (inactive)

Nc1cccc2cnccc12
IC50 [14]: > 50 µM (not active)
AC50 [15]: 20 µM (inconclusive)
AC50 [12]: 22.4 µM (inconclusive)
AC50 [16]: > 20 µM (inactive)
AC50 [17]: 28.2 µM (inconclusive)

Cc1ccccc1NC(=O)Nc1ccccc1Br
IC50 [2]: > 50 µM (not active)

COc1ccc(-n2nc(C(=O)NCC(=O)N3CCN(c4ccc(F)cc4)CC3)c3ccccc3c2=O)c(OC)c1
EC50 [4]: > 150 µM (inactive)
EC50 [7]: > 180 µM (inactive)
EC50 [8]: 0.642 µM (active)
EC50 [10]: > 150 µM (inactive)

O=c1oc(-c2ccco2)nc2c1cnn2-c1ccccc1
IC50 [18]: > 79 µM (inactive)
IC50 [1]: 18.2 µM (active)

Cc1[nH]n(-c2ccccc2)c(=O)c1N=Nc1ccc2c(c1)OCCO2
EC50 [19]: > 350 µM (not active)
IC50 [13]: 41.2 µM (active)
EC50 [20]: > 350 µM (not active)

Cc1nn(C)c(C)c1S(=O)(=O)N1CCC(C(=O)NCCC2=CCCCC2)CC1
IC50 [2]: > 50 µM (not active)
IC50 [1]: > 50 µM (inactive)
